Data from article PMC4667193 (Scientific Reports, 2015).

Tests used:
[1] = test system: rat primary hippocampal cell culture; test: intracellular calcium release in hippocampal cells (Fluo4-AM); assay type: cell-based; conditions: 10^−5, 10^−4 and 10^−3 M AEME
Experimental: Hippocampal cells were removed from the plates and previously incubated with Fluo4-AM dye (Invitrogen) dissolved in Neurobasal medium (Gibco®) for one hour[46]. The cells were centrifuged (300 g for 5 minutes at 20 °C), washed with phosphate buffer solution (PBS) without calcium, and plated in microscopy confocal (Zeiss LSM 510, Meta) microplates pretreated with poli-L-lysine. The fluorescence was measured for 90 seconds in the absence and/or in the presence of 10^−5, 10^−4 and 10^−3 M AEME. After this period, 250 mM KCl was added in order to promote neuronal […] and, thus, verify its viability. All measurements were performed with a PBS free-calcium solution. Digitalized images were analyzed through the software Origin 5.

Rat M2 mAChR = molecular target: T1, Rat M2 mAChR (Rattus norvegicus, UniProt P10980); test: calcium mobilization assay in CHO cells (Gqi5); assay type: cell-based; conditions: rat M2, 100 μM AEME on ACh curve
T1 construct: host or cells: CHO (CHO-K1) cells
T1 sequence (P10980 1-466): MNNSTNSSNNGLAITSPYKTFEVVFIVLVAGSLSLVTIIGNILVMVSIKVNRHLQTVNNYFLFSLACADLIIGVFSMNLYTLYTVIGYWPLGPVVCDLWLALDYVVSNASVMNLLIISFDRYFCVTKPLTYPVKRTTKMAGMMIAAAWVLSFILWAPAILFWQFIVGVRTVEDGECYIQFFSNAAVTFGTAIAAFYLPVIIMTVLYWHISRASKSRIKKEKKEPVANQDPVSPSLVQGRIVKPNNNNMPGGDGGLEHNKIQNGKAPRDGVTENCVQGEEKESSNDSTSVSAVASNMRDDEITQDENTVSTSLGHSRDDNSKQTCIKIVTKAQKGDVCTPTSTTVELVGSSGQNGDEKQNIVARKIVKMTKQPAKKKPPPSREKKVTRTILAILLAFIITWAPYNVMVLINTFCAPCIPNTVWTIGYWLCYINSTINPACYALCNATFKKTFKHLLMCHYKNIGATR
Experimental: (§1) Chinese hamster ovary (CHO) cells individually and stably expressing individual rat mAChRs (rM1 to rM5 mAChRs) were purchased from the American Type Culture Collection (ATCC) and cultured according to ATCC recommendations. To generate stable rM2 and rM4 cell lines for use in calcium mobilization assays, rM2 and rM4-expressing cells were stably transfected with a chimeric G protein (Gqi5) using Lipofectamine 2000 (Invitrogen). rM2 and rM4 cells were grown in Ham’s F-12 medium containing 10% heat-inactivated fetal bovine serum (FBS), 2 mM GlutaMAX (Gibco®), 20 mM HEPES, 500 μg/mL G418 sulfate, 200 μg/mL hygromycin B and an antibiotic-antimycotic solution (Gibco®). rM1, rM3 and rM5 mAChR-CHO cells were grown in the same medium without hygromycin B[48]. CHO cells were cultured in a 150 mm-diameter cell culture-treated dishes (Corning®) at 37 °C and 5% CO2 until complete confluence.
(§2) CHO cells expressing rM1, rM3 and rM5 were plated at 4 × 10^4 cells per well, whereas rM2 and rM4 were plated at 6 × 10^4 cells per well, in standard growth media (as described previously under “cell culture”) in 96-well plates 24 hours before assay and were incubated overnight at 37 °C in 5% CO2. […] Cells were incubated for 45 minutes (37 °C, 5% CO2) for dye loading. […] AEME concentration-response curves were determined in single-add experiments. […]

Rat M4 mAChR = molecular target: T2, Rat M4 mAChR (Rattus norvegicus, UniProt P08485); test: calcium mobilization assay in CHO cells (Gqi5); assay type: cell-based; conditions: rat M4, 100 μM AEME on ACh curve
T2 construct: host or cells: CHO (CHO-K1) cells
T2 sequence (P08485 1-478): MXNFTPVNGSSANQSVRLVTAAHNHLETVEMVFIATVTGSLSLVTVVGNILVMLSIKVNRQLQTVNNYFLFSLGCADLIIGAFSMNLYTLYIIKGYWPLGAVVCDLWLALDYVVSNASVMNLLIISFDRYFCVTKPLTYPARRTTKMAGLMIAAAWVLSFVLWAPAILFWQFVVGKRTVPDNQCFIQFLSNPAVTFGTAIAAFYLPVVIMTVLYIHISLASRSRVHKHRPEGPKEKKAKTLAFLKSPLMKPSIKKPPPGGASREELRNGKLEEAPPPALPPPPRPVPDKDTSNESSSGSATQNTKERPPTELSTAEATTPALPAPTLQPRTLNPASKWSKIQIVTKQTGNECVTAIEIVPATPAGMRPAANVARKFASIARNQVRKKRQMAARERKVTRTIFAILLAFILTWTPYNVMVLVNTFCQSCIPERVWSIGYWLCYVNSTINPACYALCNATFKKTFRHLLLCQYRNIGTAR
Experimental: as §1, §2

Rat M5 mAChR = molecular target: T3, Rat M5 mAChR (Rattus norvegicus, UniProt P08911); test: calcium mobilization assay in CHO cells, incl. Schild analysis; assay type: cell-based
T3 construct: host or cells: CHO (CHO-K1) cells
T3 sequence (P08911 1-531): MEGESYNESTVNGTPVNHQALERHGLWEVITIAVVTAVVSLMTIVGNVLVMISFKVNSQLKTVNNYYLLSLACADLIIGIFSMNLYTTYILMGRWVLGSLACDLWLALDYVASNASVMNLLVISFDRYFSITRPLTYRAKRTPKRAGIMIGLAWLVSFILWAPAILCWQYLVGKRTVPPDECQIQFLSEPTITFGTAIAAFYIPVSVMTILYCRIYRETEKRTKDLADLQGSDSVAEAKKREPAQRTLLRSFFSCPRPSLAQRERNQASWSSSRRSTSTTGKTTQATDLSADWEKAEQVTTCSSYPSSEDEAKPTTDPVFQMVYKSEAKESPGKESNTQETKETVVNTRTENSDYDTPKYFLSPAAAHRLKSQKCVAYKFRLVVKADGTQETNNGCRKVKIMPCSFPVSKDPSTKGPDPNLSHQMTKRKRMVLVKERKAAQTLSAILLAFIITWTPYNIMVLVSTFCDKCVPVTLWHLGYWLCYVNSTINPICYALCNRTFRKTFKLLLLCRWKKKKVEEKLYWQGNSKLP
Experimental: CHO cells expressing rM1, rM3 and rM5 were plated at 4 × 10^4 cells per well, whereas rM2 and rM4 were plated at 6 × 10^4 cells per well, in standard growth media (as described previously under “cell culture”) in 96-well plates 24 hours before assay and were incubated overnight at 37 °C in 5% CO2. […] Cells were incubated for 45 minutes (37 °C, 5% CO2) for dye loading. Fluo4-AM dye was removed, cells were washed and replaced with 40 μL of calcium assay buffer. AEME concentration-response curves were determined in single-add experiments. […] All compounds were dissolved in dimethyl sulfoxide (DMSO) and then in calcium assay buffer to obtain a final DMSO concentration of 0.3%. […] These values were fit using GraphPad Prism version 5.0 to determine EC50 values and Schild slope and pA2 in the Schild analyses.

caspase-3 = test system: caspase-3; set-up: method as in PMID 22523227; conditions: hippocampal neurons, 6 hours of exposure; cited from earlier work
[2] = rat M5, AEME 10^−6 to 10^−3.5 M vs acetylcholine

COC(=O)C1=CC[C@@H]2CC[C@H]1N2C [AEME, anhydroecgonine methyl ester]
intracellular calcium release [1]: concentration-dependent increase
mechanism of action (Rat M2 mAChR): antagonized the effects of ACh
mechanism of action (Rat M4 mAChR): antagonized the effects of ACh
mechanism of action (Rat M5 mAChR; rat M5, 100 μM AEME on ACh curve): antagonized the effects of ACh
Schild slope (Rat M5 mAChR; [2]): 0.95 ± 0.07
pA2 (antagonist affinity, Schild analysis) (Rat M5 mAChR; [2]): 4.87 ± 0.10
calcium increase (Rat M5 mAChR; rat M5, agonist mode): no calcium increase
caspase-3 activity (caspase-3): increased
